# From ChEMBL document CHEMBL4706535, “The development of Coronavirus 3C-Like protease (3CL) inhibitors from 2010 to 2020” (Eur J Med Chem, 2020)
# Key:
# [1] = Inhibition of SARS-CoV-2 3c-like protease; design: species or system Severe acute respiratory syndrome coronavirus 2
# [2] = Inhibition of SARS-CoV 3C-like protease (9970 to 10887 residues) expressed in Escherichia coli BL21(DE3) CodonPlus-RIL cells using Dabcyl-KTSAVLQSGFRKME-Edans fluorogenic peptide as substrate measured up to 60 mins by FRET method; design: species or system Severe acute respiratory syndrome-related coronavirus
# [3] = Inhibition of His-tagged SARS-CoV 3c-like protease using Abz-SVTLQSG-Tyr(NO2)R as substrate by fluorometric assay; design: species or system Severe acute respiratory syndrome-related coronavirus
# [4] = Inhibition of SARS-CoV-2 3c-like protease expressed in Escherichia coli by FRET-based cleavage assay; design: species or system Severe acute respiratory syndrome coronavirus 2
# [5] = Inhibition of SARS-CoV 3C-like protease (3241 to 3546 residues) expressed in Pichia pastoris GS115 using Dabcyl-KTSAVLQSGFRKME-Edans fluorogenic peptide as substrate measured for 18 mins by fluorescence method; design: species or system Severe acute respiratory syndrome-related coronavirus
# [6] = Inhibition of SARS-CoV 3C-like protease (3241 to 3546 residues) expressed in Pichia pastoris GS115 using Dabcyl-KTSAVLQSGFRKME-Edans fluorogenic peptide as substrate measured for 18 mins by Lineweaver-burk plot based Dixon plot analysis; design: species or system Severe acute respiratory syndrome-related coronavirus
smiles,measurement,setting,value
Oc1cc(O)cc(Oc2c(O)cc(O)c3c2Oc2c(O)cc(Oc4c(O)cc(O)cc4O)cc2O3)c1,IC50,[1],42.1 µM
C/C(=C\Cc1c(O)ccc(C(=O)/C=C/c2ccc(O)cc2)c1O)CCC(O)C(C)C (stereo unspecified),IC50,[2],22.2 µM
CCC(Cc1c(OC)ccc(C(=O)/C=C/c2ccc(O)cc2)c1O)OO (stereo unspecified),IC50,[2],11.4 µM
CC(=O)N[C@H](C(=O)N[C@H](C(=O)N[C@@H](CC(C)C)C(=O)N[C@@H](C[C@@H]1CCNC1=O)C(=O)Cn1[nH]c(=O)c2c([N+](=O)[O-])cccc2c1=O)[C@@H](C)OCc1ccccc1)C(C)C,IC50,[3],0.6 µM
Oc1cc(O)c(Oc2cc(O)cc(O)c2Oc2cc(-c3c(O)cc(O)cc3O)c(O)cc2O)c(O)c1,IC50,[1],22.5 µM
O=C[C@H](C[C@@H]1CCNC1=O)NC(=O)[C@H](Cc1cccc(F)c1)NC(=O)c1cc2ccccc2[nH]1,IC50,[4],0.04 µM
CC(=O)N[C@H](C(=O)N[C@H](C(=O)N[C@@H](CC(C)C)C(=O)N[C@@H](C[C@@H]1CCNC1=O)C(=O)Cn1[nH]c(=O)c2ccccc2c1=O)[C@@H](C)OCc1ccccc1)C(C)C,IC50,[3],2.7 µM
Oc1cc(O)cc(Oc2c(Oc3c(O)cc(O)cc3O)cc(O)c3c2Oc2c(O)cc(O)cc2O3)c1 [2-PHLOROECKOL],IC50,[1],13.3 µM
Oc1cc(O)cc(Oc2c(O)cc(O)c3c2Oc2c(O)cc(Oc4c(O)cc(Oc5c(O)cc(O)c6c5Oc5c(O)cc(O)cc5O6)cc4O)cc2O3)c1 [DIECKOL],IC50,[1],2.7 µM
Oc1cc(O)cc(Oc2c(O)cc(O)c3c2Oc2c(O)cc(O)cc2O3)c1 [ECKOL],IC50,[1],8.8 µM
O=C(O[C@@H]1Cc2c(O)cc(O)cc2O[C@@H]1c1cc(O)c(O)c(O)c1)c1cc(O)c(O)c(O)c1 [EPIGALOCATECHIN GALLATE],IC50,[5],73 µM
O=C(O[C@@H]1Cc2c(O)cc(O)cc2O[C@H]1c1cc(O)c(O)c(O)c1)c1cc(O)c(O)c(O)c1 [GALLOCATECHIN GALLATE],Ki,[6],25 µM
same,IC50,[5],47 µM
Oc1cc(O)cc(Oc2c(O)cc(O)c3c2Oc2c(O)cc4oc5c(Oc6cc(O)cc(O)c6)c(O)cc(O)c5c4c2O3)c1 [PHLOROFUCOFUROECKOL A],IC50,[1],16.7 µM
O=c1c(O)c(-c2ccc(O)c(O)c2)oc2cc(O)cc(O)c12 [QUERCETIN],IC50,[5],73 µM
COc1ccc(C(=O)/C=C/c2ccc(O)cc2)c(O)c1C/C=C(\C)CCC=C(C)C [XANTHOANGELOL F],IC50,[2],34.1 µM
